Assay results: PubChem BioAssay (NCI)
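Values below derive from 48-hour exposures of cells grown in 96-well plates, with endpoints linearly interpolated between the two concentrations bracketing the appropriate inhibition level. Abbreviation: GI50, concentration required for 50% inhibition of growth. TGI is the concentration that stops growth completely.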

Legend:
Assay in all cases: growth of human tumour cells (NCI), 48 h
NCI/ADR-RES ovarian = test system: NCI/ADR-RES ovarian
IGROV1 ovarian = test system: IGROV1 ovarian
MDA-MB-435 = test system: MDA-MB-435
HOP-92 NSCLC = test system: HOP-92 NSCLC
K-562 leukemia = test system: K-562 leukemia
MALME-3M melanoma = test system: MALME-3M melanoma
T-47D breast = test system: T-47D breast
EKVX NSCLC = test system: EKVX NSCLC
HCC-2998 colon = test system: HCC-2998 colon
NCI-H226 lung = test system: NCI-H226 lung

| Structure (SMILES) | TGI (NCI/ADR-RES ovarian) [µM] | GI50 (IGROV1 ovarian) [µM] | TGI (IGROV1 ovarian) [µM] | TGI (MDA-MB-435) [µM] | TGI (HOP-92 NSCLC) [µM] | GI50 (K-562 leukemia) [µM] | TGI (K-562 leukemia) [µM] | TGI (MALME-3M melanoma) [µM] | TGI (T-47D breast) [µM] | TGI (EKVX NSCLC) [µM] | GI50 (HCC-2998 colon) [µM] | TGI (HCC-2998 colon) [µM] | GI50 (NCI/ADR-RES ovarian) [µM] | GI50 (MDA-MB-435) [µM] | GI50 (HOP-92 NSCLC) [µM] | GI50 (NCI-H226 lung) [µM] | TGI (NCI-H226 lung) [µM] | GI50 (MALME-3M melanoma) [µM] | GI50 (T-47D breast) [µM] | GI50 (EKVX NSCLC) [µM] |
| --- | --- | --- | --- | --- | --- | --- | --- | --- | --- | --- | --- | --- | --- | --- | --- | --- | --- | --- | --- | --- |
| COc1cc2cc(C(=O)N3C[C@H](CCl)c4c3cc(N)c3ccccc43)[nH]c2c(OC)c1OC | 7.69 | 0.005 | 0.393 | 0.137 | > 50 | 0.005 | > 50 | 0.0103 | < 0.005 | 0.0462 | < 0.005 | < 0.005 |  |  |  |  |  |  |  |  |
| COc1cc(S(=O)(=O)Nc2ccc(C(=O)/C=C/c3ccc(O)cc3)cc2)ccc1F | > 100 |  |  | > 100 | 27.5 | > 100 | > 100 | > 100 | > 100 | > 100 | > 100 | > 100 | > 100 | > 100 | 1.55 | 22.4 | 76.2 | 35.1 | > 100 | 80.5 |
